{
  "source": "paper PMC7708037",
  "about": "“Targeting OGG1 arrests cancer cell proliferation by inducing replication stress” (Nucleic Acids Research, 2020)",
  "experiment_in_all_cases": "Resazurin viability, 5 days",
  "key": {"A3": {"test_system": "A3", "type": "cell-based, human", "conditions": "A3, C, T-cell acute lymphoblastic leukemia", "method": "(§1) Cells were seeded in 96- or 384-well plates and incubated for 3 days for combination experiments or 5 days for single-drug exposure experiments. Resazurin (R7017, SigmaAldrich) was added to a final concentration of 0.01 mg/ml resazurin and fluorescence was measured at ex530/em590 after incubation for 2, 4 or 6 h. Curves were fitted using XLfit software (IDBS) or Prism 8.0 (Graphpad Software), and EC50 values were determined.\n(§2) Supplementary Table S1: Effect of OGG1 inhibitors on cancer and non-transformed cell lines.\n(§3) Cell lines were incubated with a dilution series of the indicated compounds for 5 days, and viability\n(§4) assessed with resazurin. EC50-values were calculated based on the resulting dose -response curves.\n(§5) The number of independent experiments is indicated for each value.\n(§6) C=cancer;N=non- Disease EC50 n= EC50 n= EC50 n=\n(§7) transformed (µM) (µM) (µM)"}, "CCRF-CEM": {"test_system": "CCRF-CEM", "type": "cell-based, human", "conditions": "C, T-cell acute lymphoblastic leukemia", "method": "as §1, §2, §3, §4, §5, §6, §7\nA3 C T-cell acute lymphoblastic leukemia 10.0 12 7.9 7 9.8 5 […]\nCCRF-CEM C T-cell acute lymphoblastic leukemia 13.0 5 10.5 2 7.9 2 […]"}, "RFX393": {"test_system": "RFX393", "type": "cell-based, human", "conditions": "RFX393, C, Kidney carcinoma", "method": "as §1, §2, §3, §4, §5, §6\n(§8) transformed (µM) (µM) (µM) […]"}, "ACHN": {"test_system": "ACHN", "type": "cell-based, human", "conditions": "C, Kidney adenocarcinoma", "method": "as §1, §2, §3, §4, §5, §6, §8"}, "BJ-Ras": {"test_system": "BJ-Ras", "type": "cell-based, human", "conditions": "C, RAS-transformed fibroblast", "method": "as §1, §2, §3, §4, §5, §6, §8"}, "Jurkat": {"test_system": "Jurkat", "type": "cell-based, human", "conditions": "C, T-cell acute lymphoblastic leukemia", "method": "as §1, §2, §3, §4, §5, §6, §8"}, "LCL#1": {"test_system": "LCL#1", "type": "cell-based, human", "conditions": "LCL#1, N, Non-transformed lymphoblastoid cell line", "method": "as §1, §2, §3, §4, §5, §6, §8"}, "Reh": {"test_system": "Reh", "type": "cell-based, human", "conditions": "C, Acute lymphocytic leukemia (non-T, non-B)", "method": "as §1, §2, §3, §4, §5, §6, §8"}, "LCL#2": {"test_system": "LCL#2", "type": "cell-based, human", "conditions": "LCL#2, N, Non-transformed lymphoblastoid cell line", "method": "as §1, §2, §3, §4, §5, §6, §8"}, "KG1a": {"test_system": "KG1a", "type": "cell-based, human", "conditions": "C, Acute myelogenous leukemia", "method": "as §1, §2, §3, §4, §5, §6"}, "HT-29": {"test_system": "HT-29", "type": "cell-based, human", "conditions": "HT-29, C, Colorectal adenocarcinoma", "method": "as §1, §2, §3, §4, §5, §6"}, "SW480": {"test_system": "SW480", "type": "cell-based, human", "conditions": "SW480, C, Colorectal adenocarcinoma", "method": "as §1, §2, §3, §4, §5, §6"}, "HCT116+Chr3": {"test_system": "HCT116+Chr3", "type": "cell-based, human", "conditions": "HCT116+Chr3, C, Colorectal carcinoma with WT Chr3", "method": "as §1, §2, §3, §4, §5, §6"}, "Daudi": {"test_system": "Daudi", "type": "cell-based, human", "conditions": "C, Burkitt's lymphoma", "method": "as §1, §2, §3, §4, §5, §6"}, "MRC5": {"test_system": "MRC5", "type": "cell-based, human", "conditions": "MRC5, N, Non-transformed lung fibroblast", "method": "as §1, §2, §3, §4, §5, §6"}, "PC3": {"test_system": "PC3", "type": "cell-based, human", "conditions": "PC3, C, Prostate adenocarcinoma", "method": "as §1, §2, §3, §4, §5, §6"}, "M059K": {"test_system": "M059K", "type": "cell-based, human", "conditions": "C, Glioblastoma", "method": "as §1, §2, §3, §4, §5, §6"}, "H460": {"test_system": "H460", "type": "cell-based, human", "conditions": "H460, C, Large cell lung carcinoma", "method": "as §1, §2, §3, §4, §5, §6"}, "M059J": {"test_system": "M059J", "type": "cell-based, human", "conditions": "C, Glioblastoma", "method": "as §1, §2, §3, §4, §5, §6"}, "UO31": {"test_system": "UO31", "type": "cell-based, human", "conditions": "UO31, C, Kidney carcinoma", "method": "as §1, §2, §3, §4, §5, §6"}, "MOLT4": {"test_system": "MOLT4", "type": "cell-based, human", "conditions": "MOLT4, C, T-cell acute lymphoblastic leukemia", "method": "as §1, §2, §3, §4, §5, §6"}, "PL-21": {"test_system": "PL-21", "type": "cell-based, human", "conditions": "PL-21, C, Acute myeloid leukemia", "method": "as §1, §2, §3, §4, §5, §6"}, "Raji": {"test_system": "Raji", "type": "cell-based, human", "conditions": "C, Burkitt's lymphoma", "method": "as §1, §2, §3, §4, §5, §6"}, "SaOS2": {"test_system": "SaOS2", "type": "cell-based, human", "conditions": "SaOS2, C, Osteosarcoma", "method": "as §1, §2, §3, §4, §5, §6"}, "BJ-Tert": {"test_system": "BJ-Tert", "type": "cell-based, human", "method": "as §1, §2, §3, §4, §5, §6"}, "T98G": {"test_system": "T98G", "type": "cell-based, human", "conditions": "C, Glioblastoma", "method": "as §1, §2, §3, §4, §5, §6"}, "A498": {"test_system": "A498", "type": "cell-based, human", "conditions": "A498, C, Kidney carcinoma", "method": "as §1, §2, §3, §4, §5, §6"}, "HeLa": {"test_system": "HeLa", "type": "cell-based, human", "conditions": "C, Cervix adenomcarcinoma", "method": "as §1, §2, §3, §4, §5, §6"}, "U2OS": {"test_system": "U2OS", "type": "cell-based, human", "conditions": "C, Osteosarcoma", "method": "as §1, §2, §3, §4, §5, §6"}, "Rec1": {"test_system": "Rec1", "type": "cell-based, human", "conditions": "Rec1, C, B cell non-Hodgkin's lymphoma", "method": "as §1, §2, §3, §4, §5, §6"}, "CCD841": {"test_system": "CCD841", "type": "cell-based, human", "conditions": "CCD841, N, Non-transformed fibroblast", "method": "as §1, §2, §3, §4, §5, §6"}, "HCT116": {"test_system": "HCT116", "type": "cell-based, human", "conditions": "HCT116, C, Colorectal carcinoma", "method": "as §1, §2, §3, §4, §5, §6"}, "MV4-11": {"test_system": "MV4-11", "type": "cell-based, human", "conditions": "MV4-11, C, Acute monocytic leukemia", "method": "as §1, §2, §3, §4, §5, §6"}, "DU145": {"test_system": "DU145", "type": "cell-based, human", "conditions": "DU145, C, Prostate carcinoma", "method": "as §1, §2, §3, §4, §5, §6"}, "VH10": {"test_system": "VH10", "type": "cell-based, human", "conditions": "VH10, N, Non-transformed fibroblast", "method": "as §1, §2, §3, §4, §5, §6"}, "HL-60": {"test_system": "HL-60", "type": "cell-based, human", "conditions": "HL-60, C, Acute promyelocytic leukemia", "method": "as §1, §2, §3, §4, §5, §6"}, "786-0": {"test_system": "786-0", "type": "cell-based, human", "conditions": "786-0, C, Kidney adenocarcinoma", "method": "as §1, §2, §3, §4, §5, §6"}, "MEF Ogg1(-/-)": {"test_system": "MEF Ogg1(-/-)", "type": "cell-based", "conditions": "N, Non-transformed mouse embryonic fibroblast", "method": "as §1, §2, §3, §4, §5, §6, §8"}},
  "note": "Like-named read-outs stand apart in the source and are kept apart here.",
  "data": [
    {"smiles": "O=C(Nc1ccc(I)cc1)N1CCC(n2c(=O)[nH]c3c(Br)cccc32)CC1", "note": "[TH5487]", "values": [
      {"measurement": "EC50", "setting": "A3", "value": 10, "unit": "µM"},
      {"measurement": "EC50", "setting": "CCRF-CEM", "value": 13, "unit": "µM"},
      {"measurement": "EC50", "setting": "RFX393", "value": 19.6, "unit": "µM"},
      {"measurement": "EC50", "setting": "ACHN", "value": 2.3, "unit": "µM"},
      {"measurement": "EC50", "setting": "BJ-Ras", "value": 4.8, "unit": "µM"},
      {"measurement": "EC50", "setting": "Jurkat", "value": 10.5, "unit": "µM"},
      {"measurement": "EC50", "setting": "LCL#1", "value": 31.1, "unit": "µM"},
      {"measurement": "EC50", "setting": "Reh", "value": 18.3, "unit": "µM"},
      {"measurement": "EC50", "setting": "LCL#2", "value": 27.7, "unit": "µM"},
      {"measurement": "EC50", "setting": "KG1a", "value": 14.3, "unit": "µM"},
      {"measurement": "EC50", "setting": "HT-29", "value": 24.5, "unit": "µM"},
      {"measurement": "EC50", "setting": "SW480", "value": 33.3, "unit": "µM"},
      {"measurement": "EC50", "setting": "HCT116+Chr3", "value": 20.6, "unit": "µM"},
      {"measurement": "EC50", "setting": "Daudi", "value": 16.6, "unit": "µM"},
      {"measurement": "EC50", "setting": "MRC5", "value": 42.4, "unit": "µM"},
      {"measurement": "EC50", "setting": "PC3", "value": 32.6, "unit": "µM"},
      {"measurement": "EC50", "setting": "M059K", "value": 20.3, "unit": "µM"},
      {"measurement": "EC50", "setting": "H460", "value": 10.1, "unit": "µM"},
      {"measurement": "EC50", "setting": "M059J", "value": 26.1, "unit": "µM"},
      {"measurement": "EC50", "setting": "UO31", "value": 2.9, "unit": "µM"},
      {"measurement": "EC50", "setting": "MOLT4", "value": 13.2, "unit": "µM"},
      {"measurement": "EC50", "setting": "PL-21", "value": 20.6, "unit": "µM"},
      {"measurement": "EC50", "setting": "Raji", "value": 19, "unit": "µM"},
      {"measurement": "EC50", "setting": "SaOS2", "value": 21.4, "unit": "µM"},
      {"measurement": "EC50", "setting": "BJ-Tert; BJ-Tert, N, Tert-Immortalized fibroblast, 5 days, resazurin, read-out: EC50", "value": 33.7, "unit": "µM"},
      {"measurement": "EC50", "setting": "BJ-Tert; hTERT-immortalized BJ fibroblasts, five days, Figure 3C, read-out: EC50 (viability)", "value": "29.5 ± 4.7", "unit": "µM"},
      {"measurement": "EC50", "setting": "T98G", "value": 14.5, "unit": "µM"},
      {"measurement": "EC50", "setting": "A498", "value": 28.5, "unit": "µM"},
      {"measurement": "EC50", "setting": "HeLa", "value": 19.3, "unit": "µM"},
      {"measurement": "EC50", "setting": "U2OS", "value": 19.5, "unit": "µM"},
      {"measurement": "EC50", "setting": "Rec1", "value": 13.7, "unit": "µM"},
      {"measurement": "EC50", "setting": "CCD841", "value": 43.3, "unit": "µM"},
      {"measurement": "EC50", "setting": "HCT116", "value": 17.5, "unit": "µM"},
      {"measurement": "EC50", "setting": "MV4-11", "value": 7.8, "unit": "µM"},
      {"measurement": "EC50", "setting": "DU145", "value": 13.2, "unit": "µM"},
      {"measurement": "EC50", "setting": "VH10", "value": 32.4, "unit": "µM"},
      {"measurement": "EC50", "setting": "HL-60", "value": 15.9, "unit": "µM"},
      {"measurement": "EC50", "setting": "786-0", "value": 29.7, "unit": "µM"},
      {"measurement": "EC50", "setting": "MEF Ogg1(-/-)", "value": 47.7, "unit": "µM"}
    ]}
  ]
}
